Data from patent US20100137375A1, “Emulsifiable Concentrate” (BASF SE, priority 2005, published 2010).

Experiments:
[1] = tested on: Southern armyworm (Spodoptera eridania), third instar; test: Lima bean leaf-dip test against Southern armyworm; assay type: in vivo
Method: Performance of EC formulations according to the invention against Southern armyworm (Spodoptera eridania), third instar
A stock solution of metaflumizone formulation is diluted into a container of water. Lima bean leaves are dipped into treatment solutions and allowed to air-dry. A single treated leaf is placed topside-up onto water-moistened filter paper in multiple plastic petri dishes. Seven larvae are placed onto each leaf and then each arena is sealed with petri dish covers. Each treatment replicated 4-fold (1 replicate=1 petri dish arena). Following treatment application, infested plants are held in the laboratory under fluorescent lighting and constant 26° C. Larval mortality/morbidity (i.e., number dead/number tested) is assessed at 5 days post-treatment. The mortality levels based on number of live larve.

[2] = tested on: Colorado potato beetle (Leptinotarsa decemlineata); test: Field trial against Colorado potato beetle in potatoes; assay type: in vivo; details: 60 g AI/HA
Method: Performance of EC formulations according to the invention against the Colorado potato beetle (Leptinotarsa decemlineata) in potatoes
The trial was arranged in a randomized complete block design with three replications. Plots were 5 m long and one row (1 m) wide. Applications were conducted with a fournozzle row crop boom delivering side and overhead coverage, at 3-bar pressure and 400 l/ha. Numbers of larvae (L1/2) (L3/4) were recorded per plot at 2, 5 and 14 DAT (day after treatment) and a defoliation assessment was made at 14 DAT. Colorado potato beetle pressure was high resulting in complete defoliation in the controls at 19 DAT.

[3] = larval mortality at 5 days post-treatment, Log Dose-Probit analysis

Question: Which LC50 [1, 3] does the source give for `N#Cc1ccc(CC(=NNC(=O)Nc2ccc(OC(F)(F)F)cc2)c2cccc(C(F)(F)F)c2)cc1` [metaflumizone] here?
Answer: 1.50 ppm

Question: What about the LC90 [1, 3] of the same compound?
Answer: 7.70 ppm

Question: And the “Biological Enhancement” value ([1]; relative to metaflumizone dispersed in water (standard control))?
Answer: 1x (standard control)

Question: What about the “Mean # of L1/L2 per plot” value ([2]; 2 DAT) of the same compound?
Answer: .3b

Question: And the “Mean # of L3/L4 per plot” value ([2]; 2 DAT)?
Answer: .3b

Question: And the “Mean # of L1/L2 per plot” value ([2]; 5 DAT)?
Answer: 4b

Question: What about the “Mean # of L3/L4 per plot” value ([2]; 5 DAT) of the same compound?
Answer: 2b

Question: And the “% Defoliation” value ([2]; 14 DAT)?
Answer: 18a %

Question: And the “Mean # of L1/L2 per plot” value ([2]; 14 DAT)?
Answer: .3a

Question: And the “Mean # of L3/L4 per plot” value ([2]; 14 DAT)?
Answer: 7ab
